This is an account of results in patent US20240197628A1, “INHALABLE DRY POWDER FORMULATIONS COMPRISING ANGIOGENESIS INHIBITORS” (Lonza Bend Inc., priority 2020, published 2024).

For series [1] the following is noted: solution prepared 18 hours before spray drying; cited from earlier work.
Series [2] concerns NSCLC cell line Calu-3. Kind of series: Orthotopic nude rat model for lung cancer, in vivo efficacy study. To be noted: each with cisplatin IP 3 mg/kg, 1.5 mg/kg deposited INH vs 15 mg/kg IP, 8 weeks. As for the experimental part:
NSCLC cell line Calu-3 was instilled into the lungs of X-irradiated rats by an intratracheal route, targeting 1.5×10^7 cells per installation. For the first four weeks of the study, no treatment was administered, allowing growth of the tumor cells. Inhaled bevacizumab SDD was evaluated as a primary treatment as well as a maintenance therapy.
Cisplatin was administered by IP at 3 mg/kg. Powder was aerosolized using a rotating brush generator and delivered to the rats passively through nasal inhalation. […] Groups 1-4 were evaluated for primary efficacy after 8 weeks with lung weight as the end point. Groups 5-7 were evaluated for maintenance efficacy after 12 weeks with lung weight and survival as the end point.

`N.N.[Cl][Pt][Cl]` [cisplatin]: the “stability in aqueous solution” value in series [1] is listed as “converts to transplatin”.

As to Bevacizumab [bevacizumab control], the “tumor burden, inhaled vs IP bevacizumab” value in series [2] (listed as IP bevacizumab) is “indistinguishable”; in series [2] (listed as bevacizumab delivered via IP injection), “equal”.
